# Data from patent US11998539B2, “Substituted aminoquinolones as DGKalpha inhibitors for immune activation” (Bayer Aktiengesellschaft, priority 2019, dated 2024).
# Biological target: DGKα (Homo sapiens (Human), UniProt P23743)
# Assay: Human DGKα kinase activity inhibition assay (ADP-Glo)
# Type: biochemical
# Conditions: recombinant full-length human DGKα, 55 μM ATP, 7 μM 1,2-dioleoyl-sn-glycerol, read-out: IC50 values of examples in in vitro human DGKa kinase activity inhibition assays
# Outline: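 Recombinant full-length human DGKα (C-terminal FLAG, from insect cells) phosphorylated 1,2-dioleoyl-sn-glycerol presented in octyl-glucopyranoside micelles. ADP formed was quantified by ADP-Glo luminescence. Compounds were added from 100-fold DMSO stocks.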
# Chain of DGKα (P23743 other isoform, or with tags, fused parts or gaps): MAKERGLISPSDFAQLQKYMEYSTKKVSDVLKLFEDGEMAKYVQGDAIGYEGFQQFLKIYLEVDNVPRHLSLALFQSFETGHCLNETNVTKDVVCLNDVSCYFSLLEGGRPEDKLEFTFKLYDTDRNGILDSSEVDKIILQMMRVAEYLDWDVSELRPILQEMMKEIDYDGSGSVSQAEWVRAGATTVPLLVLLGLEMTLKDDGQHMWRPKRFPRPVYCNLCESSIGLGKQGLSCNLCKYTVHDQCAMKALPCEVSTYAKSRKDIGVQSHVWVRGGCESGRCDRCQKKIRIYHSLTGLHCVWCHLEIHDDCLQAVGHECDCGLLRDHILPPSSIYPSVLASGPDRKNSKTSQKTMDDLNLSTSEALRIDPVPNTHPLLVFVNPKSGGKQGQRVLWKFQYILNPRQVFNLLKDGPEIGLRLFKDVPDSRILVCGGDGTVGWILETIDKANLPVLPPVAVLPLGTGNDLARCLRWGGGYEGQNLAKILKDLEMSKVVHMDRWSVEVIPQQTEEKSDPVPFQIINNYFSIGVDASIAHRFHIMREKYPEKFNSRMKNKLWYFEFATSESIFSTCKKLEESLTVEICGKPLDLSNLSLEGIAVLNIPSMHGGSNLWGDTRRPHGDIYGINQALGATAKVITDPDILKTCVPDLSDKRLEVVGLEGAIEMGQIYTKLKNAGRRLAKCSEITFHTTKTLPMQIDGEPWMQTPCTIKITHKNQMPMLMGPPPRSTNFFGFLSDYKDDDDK
row,Compound,IC50 [nM]
1,"Cc1ccc2oc(C3CCN(c4c(C#N)c(=O)n(C)c5cc(O)c(Cl)cc45)CC3)nc2c1 [Example 567, 6-chloro-7-hydroxy-1-methyl-4-[4-(5-methyl-1,3-benzoxazol-2-yl)piperidin-1-yl]-2-oxo-1,2-dihydroquinoline-3-carbonitrile]",2
2,"COC1(c2cccc(Cl)c2)CCN(c2c(C(N)=O)c(=O)n(C)c3ccccc23)CC1 [Example 451, 4-[4-(3-chlorophenyl)-4-methoxypiperidin-1-yl]-1-methyl-2-oxo-1,2-dihydroquinoline-3-carboxamide]",163
3,"Cn1c(=O)c(C#N)c(N2CCC(c3nc4ccccc4o3)CC2)c2ccc(Cl)cc21 [Example 227, 4-[4-(1,3-benzoxazol-2-yl)piperidin-1-yl]-7-chloro-1-methyl-2-oxo-1,2-dihydroquinoline-3-carbonitrile]",2
4,"COCCc1ccc2nc(C3CCN(c4c(C(N)=O)c(=O)n(C)c5ccccc45)CC3)oc2c1 [Example 317, 4-{4-[6-(2-methoxyethyl)-1,3-benzoxazol-2-yl]piperidin-1-yl}-1-methyl-2-oxo-1,2-dihydroquinoline-3-carboxamide]",17
5,"COc1cc2c(cc1Cl)c(N1CCC(c3nc4cc(C)ccc4o3)CC1)c(C#N)c(=O)n2C [Example 566, 6-chloro-7-methoxy-1-methyl-4-[4-(5-methyl-1,3-benzoxazol-2-yl)piperidin-1-yl]-2-oxo-1,2-dihydroquinoline-3-carbonitrile]",0.3
6,"Cc1ccc2oc(C3(C)CCN(c4c(C#N)c(=O)n(C)c5cc(C(F)(F)F)ccc45)CC3)nc2c1 [Example 290, 1-methyl-4-[4-methyl-4-(5-methyl-1,3-benzoxazol-2-yl)piperidin-1-yl]-2-oxo-7-(trifluoromethyl)-1,2-dihydroquinoline-3-carbonitrile]",10
7,"Cn1c(=O)c(C#N)c(N2CCC(c3nc4ccccc4s3)CC2)c2cc(C#N)ccc21 [Example 176, 4-[4-(1,3-benzothiazol-2-yl)piperidin-1-yl]-1-methyl-2-oxo-1,2-dihydroquinoline-3,6-dicarbonitrile]",3
8,"Cn1c(=O)c(C(N)=O)c(N2CCC(c3nc4ccccc4o3)CC2)c2ccc(Br)cc21 [Example 104, 4-[4-(1,3-benzoxazol-2-yl)piperidin-1-yl]-7-bromo-1-methyl-2-oxo-1,2-dihydroquinoline-3-carboxamide]",0.6
9,"Cc1ccc2oc(C3CCN(c4c(C#N)c(=O)n(C)c5ccc(OCC(C)(F)F)cc45)CC3)nc2c1 [Example 406, 6-(2,2-difluoropropoxy)-1-methyl-4-[4-(5-methyl-1,3-benzoxazol-2-yl)piperidin-1-yl]-2-oxo-1,2-dihydroquinoline-3-carbonitrile]",36
10,"Cn1c(=O)c(C#N)c(N2CCC(c3nnc(-c4cccc(Cl)c4)o3)CC2)c2ccccc21 [Example 354, 4-{4-[5-(3-chlorophenyl)-1,3,4-oxadiazol-2-yl]piperidin-1-yl}-1-methyl-2-oxo-1,2-dihydroquinoline-3-carbonitrile]",112
11,"COC1(c2nc3ccccc3o2)CCN(c2c(C(N)=O)c(=O)n(C)c3ccccc23)CC1 [Example 489, 4-[4-(1,3-benzoxazol-2-yl)-4-methoxypiperidin-1-yl]-1-methyl-2-oxo-1,2-dihydroquinoline-3-carboxamide]",7.5
12,"Cc1ccc2oc(C3CCN(c4c(C#N)c(=O)n(C)c5cc(N(C)CCO)ccc45)CC3)nc2c1 [Example 399, 7-[(2-hydroxyethyl)(methyl)amino]-1-methyl-4-[4-(5-methyl-1,3-benzoxazol-2-yl)piperidin-1-yl]-2-oxo-1,2-dihydroquinoline-3-carbonitrile]",0.5
13,"Cc1ccc2oc(C3CCN(c4c(C#N)c(=O)n(C)c5cc(OC6CCOC6)ccc45)CC3)nc2c1 (single isomer, unassigned) [Example 381, 1-methyl-4-[4-(5-methyl-1,3-benzoxazol-2-yl)piperidin-1-yl]-2-oxo-7[(oxolan-3-yl)oxy]-1,2-dihydroquinoline-3-carbonitrile]",7.4
14,"COc1ccc2c(c1)c(N1CCC(c3nc(-c4ccccc4C)no3)CC1)c(C(N)=O)c(=O)n2C [Example 522, 6-methoxy-1-methyl-4-{4-[3-(2-methylphenyl)-1,2,4-oxadiazol-5-yl]piperidin-1-yl}-2-oxo-1,2-dihydroquinoline-3-carboxamide]",44
15,"COc1ccc(-c2noc(C3CCN(c4c(C(N)=O)c(=O)n(C)c5ccccc45)CC3)n2)cc1 [Example 459, 4-{4-[3-(4-methoxyphenyl)-1,2,4-oxadiazol-5-yl]piperidin-1-yl}-1-methyl-2-oxo-1,2-dihydroquinoline-3-carboxamide]",9.8
16,"Cn1c(=O)c(C#N)c(N2CCC(c3nc4cc(C5COC5)ccc4o3)CC2)c2ccccc21 [Example 287, 1-methyl-4-{4-[5-(oxetan-3-yl)-1,3-benzoxazol-2-yl]piperidin-1-yl}-2-oxo-1,2-dihydroquinoline-3-carbonitrile]",22

row,Compound,IC50 [nM]
1,"Cn1c(=O)c(C#N)c(N2CCC(c3cccc(C4CC4)c3)CC2)c2ccccc21 [Example 45, 4-[4-(3-cyclopropylphenyl)piperidin-1-yl]-1-methyl-2-oxo-1,2-dihydroquinoline-3-carbonitrile]",2.1
2,"Cn1c(=O)c(C#N)c(N2CCC(c3ccc(S(C)(=O)=O)cc3)CC2)c2ccccc21 [Example 65, 4-{4-[4-(methanesulfonyl)phenyl]piperidin-1-yl}-1-methyl-2-oxo-1,2-dihydroquinoline-3-carbonitrile]",74
3,"COc1ccc2oc(C3(F)CCN(c4c(C#N)c(=O)n(C)c5ccccc45)CC3)nc2c1 [Example 393, 4-[4-fluoro-4-(5-methoxy-1,3-benzoxazol-2-yl)piperidin-1-yl]-1-methyl-2-oxo-1,2-dihydroquinoline-3-carbonitrile]",106
4,"COc1ccc(C2CCN(c3c(C#N)c(=O)n(C)c4ccc(C5=CCOCC5)cc34)CC2)cc1 [Example 180, 6-(3,6-dihydro-2H-pyran-4-yl)-4-[4-(4-methoxyphenyl)piperidin-1-yl]-1-methyl-2-oxo-1,2-dihydroquinoline-3-carbonitrile]",1510
5,"Cc1ccc2oc(C3(C)CCN(c4c(C#N)c(=O)n(C)c5cc(O)c(C#N)cc45)CC3)nc2c1 [Example 426, 7-hydroxy-1-methyl-4-[4-methyl-4-(5-methyl-1,3-benzoxazol-2-yl)piperidin-1-yl]-2-oxo-1,2-dihydroquinoline-3,6-dicarbonitrile]",13
6,"Cc1ccc2oc(C3CCN(c4c(C#N)c(=O)n(C)c5ccc(C6CCC6)cc45)CC3)nc2c1 [Example 409, 6-cyclobutyl-1-methyl-4-[4-(5-methyl-1,3-benzoxazol-2-yl)piperidin-1-yl]-2-oxo-1,2-dihydroquinoline-3-carbonitrile]",8.4
7,"Cn1c(=O)c(C#N)c(N2CCC(c3ccc4c(c3)C3(CCC3)C(=O)N4)CC2)c2ccccc21 [Example 361, 1-methyl-2-oxo-4-[4-(2′-oxo-1′,2′-dihydrospiro[cyclobutane-1,3′-indol]-5′-yl)piperidin-1-yl]-1,2-dihydroquinoline-3-carbonitrile]",27
8,"Cn1c(=O)c(C#N)c(N2CCC(c3ccn(-c4cccc(Cl)c4)n3)CC2)c2ccccc21 [Example 368, 4-{4-[1-(3-chlorophenyl)-1H-pyrazol-3-yl]piperidin-1-yl}-1-methyl-2-oxo-1,2-dihydroquinoline-3-carbonitrile]",13
9,"Cc1ccc2oc(C3(C)CCN(c4c(C#N)c(=O)n(C)c5ccc(C6CC(F)(F)C6)cc45)CC3)nc2c1 [Example 209, 6-(3,3-difluorocyclobutyl)-1-methyl-4-[4-methyl-4-(5-methyl-1,3-benzoxazol-2-yl)piperidin-1-yl]-2-oxo-1,2-dihydroquinoline-3-carbonitrile]",26
10,"Cc1ccc2c(c1)c(N1CCC(c3nc4ccc(Cl)cc4o3)CC1)c(C#N)c(=O)n2C [Example 183, 4-[4-(6-chloro-1,3-benzoxazol-2-yl)piperidin-1-yl]-1,6-dimethyl-2-oxo-1,2-dihydroquinoline-3-carbonitrile]",1.5
11,"Cc1ccc2oc(C3CCN(c4c(C(N)=O)c(=O)n(C)c5ccc(C)cc45)CC3)nc2c1 [Example 194, 1,6-dimethyl-4-[4-(5-methyl-1,3-benzoxazol-2-yl)piperidin-1-yl]-2-oxo-1,2-dihydroquinoline-3-carboxamide]",2.2
12,"Cc1ccc2oc(C3(C)CCN(c4c(C#N)c(=O)n(C)c5ccc(CC6COC6)cc45)CC3)nc2c1 [Example 286, 1-methyl-4-[4-methyl-4-(5-methyl-1,3-benzoxazol-2-yl)piperidin-1-yl]-6-[(oxetan-3-yl)methyl]-2-oxo-1,2-dihydroquinoline-3-carbonitrile]",374
13,"COc1ccc(C2CCN(c3c(C#N)c(=O)n(C)c4cc(C5=CCOCC5)ccc34)CC2)cc1 [Example 100, 7-(3,6-dihydro-2H-pyran-4-yl)-4-[4-(4-methoxyphenyl)piperidin-1-yl]-1-methyl-2-oxo-1,2-dihydroquinoline-3-carbonitrile]",2.3
14,"Cn1cc(C2CCN(c3c(C#N)c(=O)n(C)c4ccccc34)CC2)cn1 [Example 323, 1-methyl-4-[4-(1-methyl-1H-pyrazol-4-yl)piperidin-1-yl]-2-oxo-1,2-dihydroquinoline-3-carbonitrile]",326
15,"Cn1c(=O)c(C#N)c(N2CCC(c3cccc4ncsc34)CC2)c2ccccc21 [Example 75, 4-[4-(1,3-benzothiazol-7-yl)piperidin-1-yl]-1-methyl-2-oxo-1,2-dihydroquinoline-3-carbonitrile]",49
16,"Cc1ccc2oc(C3CCN(c4c(C#N)c(=O)n(C)c5ccc(OCC(F)F)cc45)CC3)nc2c1 [Example 407, 6-(2,2-difluoroethoxy)-1-methyl-4-[4-(5-methyl-1,3-benzoxazol-2-yl)piperidin-1-yl]-2-oxo-1,2-dihydroquinoline-3-carbonitrile]",48
